# Values of other authors in patent publication US8329435B2, “Methods for improved uptake of biological molecules” (American Symbolic, LLC, priority 2007, dated 2012).
# Settings: unmodified glutathione
smiles,measurement,setting,value
N[C@@H](CCC(=O)N[C@@H](CS)C(=O)NCC(=O)O)C(=O)O [glutathione],half-life of glutathione in the blood,blood,around 120 seconds
same,half-life in the blood stream,blood stream,about a minute and a half
